Columns and labels:
Test in all cases: relative viability (nuclei count vs DMSO), 5 days (fraction); higher = more cells survive
[1] = compound: CC1=CC=C(C=C1)C(=O)CN2C3=C(CCCC3)SC2=N [Pifithrin_alpha] + O=C(c1cc(Cc2n[nH]c(=O)c3ccccc23)ccc1F)N1CCN(C(=O)C2CC2)CC1 [Olaparib] (partner 8 µM)
How it was run: (§1)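 Relative viability equals treated-well nuclei counts divided by vehicle-well nuclei counts. Counts came from 4× images of lung cancer cell lines grown in 1536-well plates for 5 days after pin-tool dosing on the day after seeding. Dosing used one drug alone or a fixed anchor-drug dose plus five library-drug doses (not always all listed) in √10 steps, and values are medians of duplicate plates.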

[2] = compound: CC1=CC=C(C=C1)C(=O)CN2C3=C(CCCC3)SC2=N [Pifithrin_alpha] + C[C@]1(O)C[C@@H](c2nc(-c3ccc4ccc(-c5ccccc5)nc4c3)c3c(N)nccn32)C1 [Linsitinib] (partner 1 µM)
How it was run: as §1

Axitinib + Dasatinib = compound: CNC(=O)c1ccccc1Sc1ccc2c(/C=C/c3ccccn3)n[nH]c2c1 [Axitinib] + Cc1nc(Nc2ncc(C(=O)Nc3c(C)cccc3Cl)s2)cc(N2CCN(CCO)CC2)n1 [Dasatinib] (partner 0.075 µM)
How it was run: as §1

Axitinib + Alpelisib = compound: CNC(=O)c1ccccc1Sc1ccc2c(/C=C/c3ccccn3)n[nH]c2c1 [Axitinib] + Cc1nc(NC(=O)N2CCC[C@H]2C(N)=O)sc1-c1ccnc(C(C)(C)C(F)(F)F)c1 [Alpelisib] (partner 2 µM)
How it was run: as §1

Row | Cell Line | relative viability ([1]; first compound 1 µM) | relative viability ([1]; first compound 3.162 µM) | relative viability ([1]; first compound 10 µM) | relative viability ([1]; first compound 31.62 µM) | relative viability ([1]; first compound 100 µM) | relative viability ([2]; first compound 1 µM) | relative viability ([2]; first compound 3.162 µM) | relative viability ([2]; first compound 10 µM) | relative viability ([2]; first compound 31.62 µM) | relative viability ([2]; first compound 100 µM) | relative viability (Axitinib + Dasatinib; first compound 0.005 µM) | relative viability (Axitinib + Dasatinib; first compound 0.01581 µM) | relative viability (Axitinib + Dasatinib; first compound 0.05 µM) | relative viability (Axitinib + Dasatinib; first compound 0.1581 µM) | relative viability (Axitinib + Dasatinib; first compound 0.5 µM) | relative viability (Axitinib + Alpelisib; first compound 0.005 µM) | relative viability (Axitinib + Alpelisib; first compound 0.01581 µM) | relative viability (Axitinib + Alpelisib; first compound 0.05 µM) | relative viability (Axitinib + Alpelisib; first compound 0.1581 µM) | relative viability (Axitinib + Alpelisib; first compound 0.5 µM)
1 | LCLC-103H | 0.772 | 0.817 | 0.644 | 0.52 | 0.686 | 0.915 | 0.954 | 1.09 | 0.986 | 1.18 | 0.524 | 0.516 | 0.483 | 0.402 | 0.364 | 0.987 | 0.922 | 0.845 | 0.621 | 0.999
2 | NCI-H520 | 0.319 | 0.286 | 0.317 | 0.301 | 0.292 | 1.07 | 1.07 | 0.946 | 0.623 | 1.12 | 0.197 | 0.159 | 0.194 | – | 0.192 | 0.923 | 0.951 | 0.91 | 0.784 | 0.899
3 | NCI-H1975 | 0.676 | 0.437 | 0.374 | 0.467 | 0.354 | 0.948 | 0.707 | 0.643 | 0.733 | 0.523 | 0.413 | 0.342 | 0.393 | 0.347 | 0.39 | 0.777 | 0.73 | 0.766 | 0.667 | 0.74
4 | NCI-H1355 | 0.653 | 0.52 | 0.413 | 0.442 | 0.345 | 0.753 | 0.666 | 0.599 | 0.605 | 0.599 | 0.723 | 0.766 | 0.779 | 0.757 | 0.642 | 0.891 | 0.825 | 0.794 | 0.897 | 0.909
5 | IA-LM | 0.758 | 0.699 | 0.332 | 0.192 | 0.271 | 0.784 | 0.554 | 0.272 | 0.501 | 0.267 | – | – | – | – | – | 0.79 | 0.883 | 0.733 | 0.761 | 0.619
6 | H3255 | 0.603 | 0.562 | 0.53 | 0.44 | 0.485 | 1.02 | 0.969 | 0.919 | 0.672 | 0.962 | 0.351 | 0.341 | 0.359 | 0.38 | 0.373 | 0.648 | 0.611 | 0.632 | 0.724 | 0.702
7 | NCI-H1915 | 0.245 | 0.267 | 0.249 | – | 0.276 | 1.01 | 1.08 | 1.08 | – | 1.14 | 0.307 | 0.289 | 0.315 | 0.29 | 0.252 | 1.08 | 1.08 | 1.03 | 1.08 | 1.08
8 | NCI-H2023 | 0.514 | 0.455 | 0.318 | 0.301 | 0.244 | 0.674 | 0.511 | 0.63 | 0.46 | 0.476 | 0.537 | 0.525 | 0.701 | 0.515 | 0.621 | 0.696 | 0.615 | 0.551 | 0.54 | 0.682
9 | NCI-H1650 | 0.596 | 1.09 | 0.373 | 0.298 | 0.408 | – | – | – | – | – | 0.317 | 0.318 | 0.324 | 0.332 | 0.302 | – | – | – | – | –
10 | NCI-H2170 | 0.657 | 0.593 | 0.541 | 0.309 | 0.551 | – | – | – | – | – | 0.606 | 0.579 | 0.64 | 0.582 | 0.522 | 0.849 | 0.787 | 0.817 | 0.892 | 1.03
11 | NCI-H1648 | 1.1 | 0.741 | 0.963 | 0.619 | 0.682 | – | – | – | – | – | – | – | – | – | – | – | – | – | – | –
12 | HCC-44 | 0.918 | 0.877 | 0.818 | 0.553 | 0.627 | 0.571 | 0.607 | 0.64 | 0.441 | 0.578 | – | – | – | – | – | 0.842 | 0.881 | 0.873 | 0.834 | 0.89
13 | ChaGo-K-1 | 0.404 | 0.424 | 0.336 | 0.231 | 0.371 | – | – | – | – | – | 0.611 | 0.552 | 0.583 | 0.423 | 0.611 | – | – | – | – | –
14 | Calu-6 | 0.534 | 0.536 | 0.46 | – | 0.427 | 0.932 | 1.05 | 0.997 | – | 0.848 | – | – | – | – | – | 0.847 | 0.997 | 1.02 | 1.01 | 1.18
15 | NCI-H1563 | – | – | – | – | – | 1.17 | 1.29 | 1.04 | 1.06 | 1 | 0.482 | 0.456 | 0.457 | 0.449 | 0.426 | 1.04 | 0.916 | 0.951 | 0.892 | 0.986
16 | EBC-1 | 0.621 | 0.552 | 0.348 | 0.298 | 0.363 | 0.912 | 0.878 | 0.861 | 0.561 | 0.576 | – | – | – | – | – | 0.904 | 0.863 | 0.806 | 0.738 | 1.07
17 | NCI-H1703 | 0.418 | 0.328 | 0.382 | 0.313 | 0.326 | 0.596 | 0.6 | 0.786 | 0.733 | 0.635 | – | – | – | – | – | 0.264 | 0.214 | 0.186 | 0.171 | 0.243
18 | SW 900 | 0.646 | 0.57 | 0.56 | 0.378 | 0.487 | – | – | – | – | – | 0.439 | 0.555 | 0.663 | 0.653 | 0.709 | – | – | – | – | –
19 | NCI-H1299 | 0.964 | 1 | 0.985 | 0.514 | 0.794 | 1.04 | 1.09 | 1.01 | 0.813 | 0.998 | – | – | – | – | – | 0.987 | 1.01 | 1.06 | 1.06 | 1.1
20 | NCI-H522 | 0.594 | 0.604 | 0.618 | 0.516 | 0.564 | – | – | – | – | – | 1.51 | 0.842 | 0.883 | 0.898 | 0.728 | – | – | – | – | –
21 | A549 | – | 0.473 | 0.338 | 0.175 | 0.276 | – | 0.582 | 0.595 | 0.458 | 0.71 | – | – | – | – | – | 0.79 | 0.741 | 0.775 | 0.753 | 0.874

Reference: the supplement of paper PMC10307832
